US7897369B2, “Isoprenoid wax ester synthases, isoprenoid acyl CoA-synthetases, and uses thereof” (Regents of the University of Minnesota, priority 2007, dated 2011)
Entries after “also recorded” stand apart in the source; their conditions may differ.

Assays:
[1] = tested on: WS1; assay: Coupled enzyme assay, WS substrate profile (TLC); format: biochemical, Marinobacter hydrocarbonoclasticus DSM 8798; set-up: key to WE formation (spot intensity of wax ester products on TLC), WS1, C10 / WE formation (spot intensity of wax ester products on TLC), WS1, C12 / WE formation (spot intensity of wax ester products on TLC), WS1, C14 / WE formation (spot intensity of wax ester products on TLC), WS1, C16 / WE formation (spot intensity of wax ester products on TLC), WS1, Phytol / WE formation (spot intensity of wax ester products on TLC), WS1, Farnesol: no activity (−); ranging from no activity (−) to most active (+++); ranging from no activity (−) to most active (+++); most active (+++); details: for WE formation (spot intensity of wax ester products on TLC), WS1, Farnesol: alcohol farnesol; for WE formation (spot intensity of wax ester products on TLC), WS1, Farnesol / WE formation (spot intensity of wax ester products on TLC), WS1, Phytol / WE formation (spot intensity of wax ester products on TLC), WS1, C10 / WE formation (spot intensity of wax ester products on TLC), WS1, C12 / WE formation (spot intensity of wax ester products on TLC), WS1, C14 / WE formation (spot intensity of wax ester products on TLC), WS1, C16: 12 h at 37° C., each substrate 250 μM; for WE formation (spot intensity of wax ester products on TLC), WS1, Phytol: alcohol phytol; for WE product formation by WS1 (TLC), in words: coupled reaction, palmitic acid with hexadecanol, phytanic acid with phytol, phytanoyl-CoA with the alcohols named in the value; for WE formation (spot intensity of wax ester products on TLC), WS1, C10: fatty alcohol C10; for WE formation (spot intensity of wax ester products on TLC), WS1, C12: fatty alcohol C12; for WE formation (spot intensity of wax ester products on TLC), WS1, C14: fatty alcohol C14; for WE formation (spot intensity of wax ester products on TLC), WS1, C16: fatty alcohol C16
Procedure: (§1) Stock solutions of various substrates were prepared in 50 mM Tris-HCl buffer (pH 8) containing 1% gum arabic, 12.5 μg bovine serum albumin ml^−1, 0.1% taurocholate, and either 100 mM fatty acid, isoprenoid acid, fatty alcohol, or isoprenoid alcohol. Stock solutions were sonicated to disperse the substrates. Substrate profiles of the three WS were tested using coupled enzyme in vitro reactions in which the CoA synthetases Acs1 and Acs2 are added to synthesize the CoA-activated fatty acid phytanic acid substrates from corresponding acid precursors for the WS reactions. Assays were carried out in 500-μl reactions containing in 50 mM Tris-HCl buffer (pH 8.0), 12.5 μl of each acid, and alcohol substrate stock solution (final concentrations of each substrate of 250 μM), 10 mM MgCl2, 10 mM CoASH, 10 mM ATP, 5 mM TCEP, 0.1 U of inorganic pyrophosphatase, 0.25 μg of Acs1 and Acs2 CoA synthetase, and 0.5 μg of WS to be tested. Assays were incubated at 37° C. overnight before thin-layer chromatography (TLC) analysis of the reaction products.
(§2) In vitro WS assay samples were extracted with 500 μl of chloroformmethanol (1:1 [vol/vol]), and extracts were analyzed by TLC with Whatman normal phase silica gel 60 plates and developed using hexane-diethyl ether-acetic acid (90:10:1 [vol/vol/vol]). TLC plates were stained with either iodine vapor or anisaldehyde solution as described earlier (Jork et al., 1990. Thin-layer chromatography reagents and detection methods, vol. 1a. Physical and chemical detection methods: fundamentals, reagents. VHC, Weinheim, Germany). Palmitoyl palmitate and triolein were used as WE and TAG reference compounds, respectively.

[2] = biological target: T1, WS2 (Marinobacter nauticus, UniProt A3RE51); assay: Coupled enzyme assay, WS substrate profile (TLC); format: biochemical, Marinobacter hydrocarbonoclasticus DSM 8798; set-up: key to WE formation (spot intensity of wax ester products on TLC), WS2, C16 / WE formation (spot intensity of wax ester products on TLC), WS2, Phytol / WE formation (spot intensity of wax ester products on TLC), WS2, Farnesol / WE formation (spot intensity of wax ester products on TLC), WS2, C10 / WE formation (spot intensity of wax ester products on TLC), WS2, C12 / WE formation (spot intensity of wax ester products on TLC), WS2, C14: no activity (−); ranging from no activity (−) to most active (+++); ranging from no activity (−) to most active (+++); most active (+++); details: for WE formation (spot intensity of wax ester products on TLC), WS2, Farnesol: alcohol farnesol; for WE formation (spot intensity of wax ester products on TLC), WS2, Farnesol / WE formation (spot intensity of wax ester products on TLC), WS2, Phytol / WE formation (spot intensity of wax ester products on TLC), WS2, C10 / WE formation (spot intensity of wax ester products on TLC), WS2, C12 / WE formation (spot intensity of wax ester products on TLC), WS2, C14 / WE formation (spot intensity of wax ester products on TLC), WS2, C16: 12 h at 37° C., each substrate 250 μM; for WE formation (spot intensity of wax ester products on TLC), WS2, Phytol: alcohol phytol; for WE product formation by WS2 (TLC), in words: coupled reaction, palmitic acid with hexadecanol, phytanic acid with phytol, phytanoyl-CoA with the alcohols named in the value; for WE formation (spot intensity of wax ester products on TLC), WS2, C10: fatty alcohol C10; for WE formation (spot intensity of wax ester products on TLC), WS2, C12: fatty alcohol C12; for WE formation (spot intensity of wax ester products on TLC), WS2, C14: fatty alcohol C14; for WE formation (spot intensity of wax ester products on TLC), WS2, C16: fatty alcohol C16
T1 sequence (A3RE51 entry or part of it): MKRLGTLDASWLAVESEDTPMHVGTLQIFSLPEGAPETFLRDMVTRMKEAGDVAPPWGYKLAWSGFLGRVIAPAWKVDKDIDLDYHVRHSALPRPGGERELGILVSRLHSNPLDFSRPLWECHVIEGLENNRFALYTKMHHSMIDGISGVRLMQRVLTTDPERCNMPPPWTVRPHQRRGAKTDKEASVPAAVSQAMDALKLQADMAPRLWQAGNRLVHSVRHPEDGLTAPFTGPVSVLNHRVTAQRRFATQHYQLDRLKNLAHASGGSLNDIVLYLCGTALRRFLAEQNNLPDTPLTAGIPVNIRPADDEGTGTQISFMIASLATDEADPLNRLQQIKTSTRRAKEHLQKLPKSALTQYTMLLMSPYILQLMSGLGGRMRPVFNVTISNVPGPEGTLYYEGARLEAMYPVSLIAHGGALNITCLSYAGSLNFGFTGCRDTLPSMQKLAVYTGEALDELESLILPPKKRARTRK
Procedure: as §1, §2

[3] = tested on: WS3; assay: Coupled enzyme assay, WS substrate profile (TLC); format: biochemical, Marinobacter hydrocarbonoclasticus DSM 8798; details: coupled reaction; palmitic acid with hexadecanol, phytanic acid with phytol
Procedure: as §1
(§3) In vitro WS assay samples were extracted with 500 μl of chloroformmethanol (1:1 [vol/vol]), and extracts were analyzed by TLC with Whatman normal phase silica gel 60 plates and developed using hexane-diethyl ether-acetic acid (90:10:1 [vol/vol/vol]). […]

[4] = tested on: Acs2; assay: CoA synthetase assay (HPLC, LC-MS); format: biochemical, Marinobacter hydrocarbonoclasticus DSM 8798; details: 10 mM acid, 20 min at 37° C.
Procedure: (§4) In vitro reactions were performed as described previously (Trivedi et al., 2004, Nature, 428:441-445) with some modifications. CoA synthetase assays were carried out in 250-μl reaction volumes containing 50 mM Tris-HCl buffer (pH 7.5), 0.1% Triton X-100, 10 mM MgCl2, 5 mM TCEP, 0.1 U of inorganic pyrophosphatase, and as substrates 10 mM phytanic or fatty acids, 10 mM reduced coenzyme A (CoASH), 10 mM ATP, and 0.5 μg of purified Acs (either 1, 2, 3, or 4) protein. The reactions were incubated for 20 min at 37° C. and stopped with 25 μl of 5% acetic acid, followed by HPLC analysis of the reaction products.
(§5) CoA-synthetase assay samples (25 μl) were resolved on an Agilent 1100 HPLC (Agilent Technologies, Palo Alto, Calif.) equipped with a photodiode array detector set to 259 nm. Samples were separated on a reversed-phase Eclipse XDB-C8 column (Agilent Technologies) at a flow rate of 1 ml min^−1. Solvent A consisted of 20 mM ammonium acetate (pH 5.4) in HPLC-grade water, and solvent B contained acetonitrile and methanol (85:15 [vol/vol]). Acyl-CoA and phytanoyl-CoA products were eluted using the following conditions: solvent A-solvent B at 65:35 from 0 to 5 min, followed by a gradient from solvent A-solvent B at 65:35 to 100% solvent B in 30 min. Liquid chromatography-mass spectrometry (LC-MS) analyses of reaction products were done with an LCQ mass spectrophotometer equipped with an electrospray ionization source (ESI) (Thermo Finnigan). Mass fragmentation spectra were monitored in a mass range of m/z 400 to 1,500 with a negative ESI interface.

[5] = tested on: Acs3; assay: CoA synthetase assay (HPLC, LC-MS); format: biochemical, Marinobacter hydrocarbonoclasticus DSM 8798; details: 10 mM acid, 20 min at 37° C.
Procedure: as §4, §5

[6] = tested on: Acs4; assay: CoA synthetase assay (HPLC, LC-MS); format: biochemical, Marinobacter hydrocarbonoclasticus DSM 8798; details: 10 mM acid, 20 min at 37° C.
Procedure: as §4, §5

[7] = tested on: WS1; assay: DGAT assay (TLC); format: biochemical, Marinobacter hydrocarbonoclasticus DSM 8798; details: oleoyl-CoA as acyl donor, dipalmitoyl-glycerol as acyl acceptor
Excerpt: (§6) TLC plates were stained with either iodine vapor or anisaldehyde solution as described earlier (Jork et al., 1990. Thin-layer chromatography reagents and detection methods, vol. 1a. Physical and chemical detection methods: fundamentals, reagents. VHC, Weinheim, Germany). Palmitoyl palmitate and triolein were used as WE and TAG reference compounds, respectively.

[8] = biological target: T1, WS2; assay: DGAT assay (TLC); format: biochemical, Marinobacter hydrocarbonoclasticus DSM 8798; details: oleoyl-CoA as acyl donor, dipalmitoyl-glycerol as acyl acceptor
Excerpt: as §6

[9] = biological target: T1, WS2; assay: WS2 kinetics on ethanol and oleoyl-CoA (DTNB); format: biochemical, Marinobacter hydrocarbonoclasticus
Procedure: […] Assay reactions were pre-incubated at 37° C. for 5 minutes before the reactions were started by the addition of enzyme.

[10] = biological target: T2, Acinetobacter WS/DGAT (Acinetobacter baylyi, UniProt Q8GGG1); assay: Coupled enzyme assay (TLC); format: biochemical, Acinetobacter baylyi ADP1; details: phytanic acid and phytol as substrates
T2 construct: His6 (N); made in house
T2 sequence (Q8GGG1 1-458): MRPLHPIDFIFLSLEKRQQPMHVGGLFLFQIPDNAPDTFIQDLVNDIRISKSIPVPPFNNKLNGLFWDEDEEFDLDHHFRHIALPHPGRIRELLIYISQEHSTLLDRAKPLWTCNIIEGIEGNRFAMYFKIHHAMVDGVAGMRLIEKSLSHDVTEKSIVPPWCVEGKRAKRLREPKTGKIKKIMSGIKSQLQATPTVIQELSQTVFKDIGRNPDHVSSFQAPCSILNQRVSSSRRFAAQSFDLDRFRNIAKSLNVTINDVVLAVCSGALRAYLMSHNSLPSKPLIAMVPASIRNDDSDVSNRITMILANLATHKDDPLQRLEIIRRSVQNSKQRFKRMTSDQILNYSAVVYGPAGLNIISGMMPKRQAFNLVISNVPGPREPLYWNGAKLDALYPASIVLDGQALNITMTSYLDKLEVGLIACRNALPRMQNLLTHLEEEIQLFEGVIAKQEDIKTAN
Procedure: as §1, §3

[11] = tested on: Acs1; assay: CoA synthetase assay (HPLC, LC-MS); format: biochemical, Marinobacter hydrocarbonoclasticus DSM 8798; details: 10 mM acid, 20 min at 37° C.
Procedure: as §4, §5

[12] = tested on: FadD; assay: CoA synthetase assay (HPLC, LC-MS); format: biochemical, Pseudomonas putida; details: purified recombinant protein

| SMILES | WE formation (spot intensity of wax ester products on TLC), WS1, Farnesol [1] | WE formation (spot intensity of wax ester products on TLC), WS1, Phytol [1] | WE product formation by WS1 (TLC), in words [1] | WE formation (spot intensity of wax ester products on TLC), WS1, C10 [1] | WE formation (spot intensity of wax ester products on TLC), WS1, C12 [1] | WE formation (spot intensity of wax ester products on TLC), WS1, C14 [1] | WE formation (spot intensity of wax ester products on TLC), WS1, C16 [1] | WE formation (spot intensity of wax ester products on TLC), WS2, Farnesol [2] | WE formation (spot intensity of wax ester products on TLC), WS2, Phytol [2] | WE product formation by WS2 (TLC), in words [2] | WE formation (spot intensity of wax ester products on TLC), WS2, C10 [2] | WE formation (spot intensity of wax ester products on TLC), WS2, C12 [2] | WE formation (spot intensity of wax ester products on TLC), WS2, C14 [2] | WE formation (spot intensity of wax ester products on TLC), WS2, C16 [2] | WE product formation by WS3 (TLC), in words [3] | CoA activation by Acs2 [4] | CoA activation by Acs3 [5] | CoA activation by Acs4 [6] | other results |
| --- | --- | --- | --- | --- | --- | --- | --- | --- | --- | --- | --- | --- | --- | --- | --- | --- | --- | --- | --- |
| CCCCCCCCCCCCCCCC(=O)O [C16, palmitic acid] | ++ | + | Products were observed | + | ++ | + | +++ | ++ | + | Products were observed | + | + | ++ | +++ | no products were observed | most activity | most activity | most activity |  |
| CCCCCCCC/C=C\CCCCCCCC(=O)SCCNC(=O)CCNC(=O)[C@H](O)C(C)(C)COP(=O)(O)OP(=O)(O)OC[C@H]1O[C@@H](n2cnc3c(N)ncnc32)[C@H](O)[C@@H]1OP(=O)(O)O [Oleoyl-CoA] |  |  |  |  |  |  |  |  |  |  |  |  |  |  |  |  |  |  | DGAT activity of WS1 (TAG product on TLC) [7]: TAG products were only detected for WS1; also recorded: Only WS1 shows DGAT activity; DGAT activity of WS2 (TAG product on TLC) [8]: did not show DGAT activity; Kcat of WS2 ([9]; steady state on ethanol and oleoyl-CoA): 59 s⁻¹; Vmax of WS2 ([9]; steady state, varied substrate 10 μM-250 μM, other substrate (oleoyl-CoA or ethanol) 500 μM): 1667 μmol (mg/min)^−1 |
| CC(C)CCCC(C)CCCC(C)CCCC(C)CC(=O)O (stereo not shown) [Phytanic acid] | + | + | Products were observed | − | − | − | − | ++ | ++ | Products were observed | − | − | − | − | no products were observed | converted phytanic acid into phytanoyl-CoA | Only Acs2 converted phytanic acid into phytanoyl-CoA | Only Acs2 converted phytanic acid into phytanoyl-CoA | Isoprenoid WE formation by Acinetobacter WS/DGAT [10]: did not show isoprenoid WE formation; CoA activation by Acs1 [11]: Only Acs2 converted phytanic acid into phytanoyl-CoA; CoA activation by P. putida FadD [12]: does not synthesize phytanoyl-CoA; also recorded: did not activate phytanic acid |
